IC50 data for eight sequences are collected here from patent US20060079453A1, “Hla binding peptides and their uses” (priority 2002, published 2006).

Read-outs that look alike come from different tables or passages of the source. No end group written: not given here. Some results are limits rather than exact numbers.

What all share (test): biochemical
One test concerns the target HLA-DR DRB1*0901 (DR9) (Homo sapiens, UniProt P01903+P01911, A100R/A103E/D57H/D86V/F55Y/F60I/F76Y/I96F/K127E/L162R/M171V/P40D/Q125H/Q99R/R33Q/R42F/S133A/S66N/T210M/V115G/W38K/Y107V/Y59G/Y89S). The class given is binding. Conditions: DRB1 *0901.
Another test concerns the target HLA-DR DRB5*0101 (DR51) (Homo sapiens, UniProt P01903+Q30154). Type of test: binding. The following applies: DRB5 *0101.
In the next test the target is HLA-DR DRB1*0101 (DR1) (Homo sapiens, UniProt P01903+P01911, A100R/D57E/F55L/F60I/F76Y/I96L/L162R/M171V/P40L/Q125E/R42F/V115G/Y59C). The class given is binding. The following applies: DRB1 *0101.
The target of another test is HLA-DR DRB4*0101 (DR53) (Homo sapiens, UniProt P01903+P13762, G164S). The class given is binding. The following applies: DRB4 *0101.
The next test concerns the target HLA-DR DRB1*0401 (DR4) (Homo sapiens, UniProt P01903+P01911, A100K/A169T/F76Y/I96L/K127E/L162R/M171V/N62H/P40V/Q125Y/R42H/S133A/S149N/S66Y/V115G/V209L/W38E). Type of test: binding. Conditions: DRB1 *0401.
In another test the target is HLA-DR DRB1*0301 (DR3) (Homo sapiens, UniProt P01903+P01911, A100K/A102G/A103R/A169T/F55Y/I96L/K41T/L162R/M171V/P40S/Q125H/Q178H/Q39Y/R42S/S66N/T106N/T262R/W38E/Y61H). Type of test: binding.
Sequence of HLA-DR DRB1*0301 (DR3) (P01903 26-254 limits assumed, other chains not shown): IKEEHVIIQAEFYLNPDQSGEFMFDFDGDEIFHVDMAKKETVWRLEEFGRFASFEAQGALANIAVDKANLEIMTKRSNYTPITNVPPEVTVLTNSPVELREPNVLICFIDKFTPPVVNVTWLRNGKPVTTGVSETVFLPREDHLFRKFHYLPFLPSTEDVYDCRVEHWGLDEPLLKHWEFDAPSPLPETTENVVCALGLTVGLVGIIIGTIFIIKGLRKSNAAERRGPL
For a further test, the target named is HLA-DR DRB3*0101 (DR52) (Homo sapiens, UniProt P01903+P79483). Type of test: binding.
For test [1], the target named is HLA-DQ DQA1*0301/B*0302 (DQ8) (Homo sapiens, UniProt P01909+P01920, A209T/A45G/C70Q/D89A/DUP78-78/E183D/E77G/F237L/G63E/H199R/I129T/K197E/L178F/L74F/L98V/Q57E/Q76R/S185I/S97I/T217I/T49S/V73L/Y58L).
In a further test the target is HLA-DR DRB1*0802 (DR8) (Homo sapiens, UniProt P01903+P01911, A100R/A103L/A169T/F76Y/H45Y/I96F/K41T/L162R/M171V/P40S/Q125H/Q178H/Q39Y/Q99D/R218S/R42G/S66Y/V115G/W38E). The class given is binding.
A further test concerns the target HLA-DR DRB1*1302 (DR13) (Homo sapiens, UniProt P01903+P01911, A100E/A169T/K41T/L162R/M171V/P40S/Q125H/Q178H/Q39Y/Q99D/R42S/S66N/T262R/V115G/W38E/Y61H). Type of test: binding. The following applies: DRBI *1302.
The target of a further test is HLA-DR DRB1*1501 (DR15) (Homo sapiens, UniProt P01903+P01911). The class given is binding. The following applies: DRBI *1501.
The target in a further test is HLA-B*4403 (Homo sapiens, UniProt P01889, A223V/A65T/A93T/A95T/D201E/D98Y/E176V/E187L/E204Q/E69K/G107R/H137Y/K202T/L105A/L119I/N104T/N87E/Q56L/Q94N/R106L/R155S/R180L/S101N/S121R/S35A/S48T/T118I/V36M/W191S/Y140D/Y91S). Type of test: binding.
Another test deals with H-2Kk (Mus musculus, UniProt P04223). The class given is binding, murine.
Sequence of H-2Kk (P04223 22-369): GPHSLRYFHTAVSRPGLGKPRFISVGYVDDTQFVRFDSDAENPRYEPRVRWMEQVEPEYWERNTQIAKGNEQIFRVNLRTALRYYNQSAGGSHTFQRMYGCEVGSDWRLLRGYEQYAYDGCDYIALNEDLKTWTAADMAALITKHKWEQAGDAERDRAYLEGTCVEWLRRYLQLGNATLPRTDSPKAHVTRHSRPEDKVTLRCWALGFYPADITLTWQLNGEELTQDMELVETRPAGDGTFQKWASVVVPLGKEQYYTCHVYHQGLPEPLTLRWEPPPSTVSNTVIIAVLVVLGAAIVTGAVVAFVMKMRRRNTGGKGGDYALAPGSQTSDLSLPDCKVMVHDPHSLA
Sequence of H-2Kk (P61769 21-119, further chain): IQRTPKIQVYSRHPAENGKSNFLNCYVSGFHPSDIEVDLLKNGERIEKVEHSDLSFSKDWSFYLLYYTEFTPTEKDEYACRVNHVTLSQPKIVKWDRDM
The target of a further test is HLA-B*4002 (Homo sapiens, UniProt P01889, A65T/A93T/A95T/D138N/D201E/D98Y/E176V/E204Q/E69K/K202T/N87E/Q56L/Q94N/R180L/S48T/Y33H/Y91S). Type of test: binding.
The target of a further test is HLA-B*1801 (Homo sapiens, UniProt P01889, A329T/A93T/A95T/C349S/D201E/D54G/D98Y/E176V/E187T/E204Q/E69T/K202T/Q94N/R155S/R180L/S121R/V306I/Y140S/Y195H/Y33H/Y91S). The class given is binding.
A further test addresses HLA-B*4402 (Homo sapiens, UniProt P01889, A223V/A65T/A93T/A95T/D201E/D98Y/E176V/E187L/E204Q/E69K/G107R/H137Y/K202T/L105A/L119I/N104T/N87E/Q56L/Q94N/R106L/R155S/R180D/S101N/S121R/S35A/S48T/T118I/V36M/W191S/Y140D/Y91S). Type of test: binding.
The next test has as its target HLA-B*4001 (Homo sapiens, UniProt P01889, A65T/A93T/A95T/D138N/D98Y/E176V/E69K/N87E/Q56L/Q94N/R180L/S121R/S35A/S48T/T167S/V36M/W171L/Y33H/Y91S). Type of test: binding.
A further test deals with HLA-B*4501 (Homo sapiens, UniProt P01889, A329T/A65T/A93T/A95T/C349S/D138N/D201E/D98Y/E176V/E187L/E204Q/E69K/H137Y/K202T/L119W/N87E/Q56L/Q94N/R155S/R180D/S121R/S35A/S48T/V127L/V306I/V36M/W191S/Y140L/Y33H/Y91S). The class given is binding.
In a further test the target is HLA-DR DRB1*0701 (DR7) (Homo sapiens, UniProt P01903+P01911, A100R/A102G/A103Q/D57E/D86V/E43K/F76Y/K127E/L162R/M171V/P40G/Q125H/Q99D/R33Q/R42Y/R54Q/S133A/S66F/T210M/V115G/Y107V/Y59L/Y89S). Type of test: binding. The following applies: DRB1 *0701.
Another test addresses HLA-DR DRB1*0405 (DR4) (Homo sapiens, UniProt P01903+P01911, A100R/A169T/D86S/F76Y/I96L/K127E/L162R/M171V/N62H/P40V/Q125Y/R42H/S133A/S149N/S66Y/V115G/V209L/W38E). The class given is binding. The following applies: DRB1 *0405.
The target in test [2] is HLA-DQ DQA1*0501/B*0201 (DQ2) (Homo sapiens, UniProt P01909+P01920, A45G/A70V/D89A/E106A/E77G/E98D/H199R/L107V/N214S/P84L/P87L/T103K/T109R/T172A/T60S/V78E/V99I/Y58L/Y62S/Y69I/Y79F).
The target of test [3] is HLA-DQ DQA1*0301/B*0301 (DQ7) (Homo sapiens, UniProt P01909+P01920, A209T/C70Q/DUP78-78/E183D/F237L/G63E/I129T/K197E/L178F/L74F/L98V/Q57E/Q76R/S185I/S97I/T49S/V73L). Type of test: binding.

Sequence of HLA-DR DRB1*1302 (DR13) (P01903 26-254 limits assumed, other chains not shown): as the sequence (P01903 26-254 limits assumed, other chains not shown) above

On to RLFDNASLRAHRLHQ, for which the IC50 on HLA-DR DRB1*0901 (DR9) came to 23800 nM; on HLA-DR DRB5*0101 (DR51) it was 557 nM; at HLA-DR DRB1*0101 (DR1), 89 nM; against HLA-DR DRB4*0101 (DR53), 3210 nM; at HLA-DR DRB1*0401 (DR4) it was 77 nM; on HLA-DR DRB1*0301 (DR3), 97 nM. Moreover, the IC50 was 11400 nM against HLA-DR DRB3*0101 (DR52); more than 36200 nM in [1]; 15000 nM on HLA-DR DRB1*0802 (DR8); 84 nM against HLA-DR DRB1*1302 (DR13); 85 nM at HLA-DR DRB1*1501 (DR15).
Consider SDYEGRLI, for which the IC50 against HLA-B*4403 is 228 nM; against H-2Kk it was 0.6 nM; against HLA-B*4002, 86 nM; against HLA-B*1801, more than 24800 nM.
In the case of YEDTGKTI, the IC50 on HLA-B*4402 (B*4402) stood at 7910 nM; against HLA-B*4001 (B*4001) it was 794 nM; at H-2Kk, 0.86 nM; at HLA-B*4002 (B*4002) it was 83 nM; at HLA-B*1801 (B*1801), 14000 nM; on HLA-B*4501 (read-out: B*4501), 49000 nM.
For NEILIRCII, the IC50 against HLA-B*4403 (B*4403) amounted to 258 nM; at H-2Kk it was 12 nM; on HLA-B*4002 (B*4002), 59 nM; on HLA-B*1801 (B*1801), 5670 nM; on HLA-B*4501 (B*4501), 3250 nM.
For SAAPLRTITADTFRK, the IC50 against HLA-DR DRB1*0701 (DR7) is 3650 nM; in test [1], more than 46700 nM; against HLA-DR DRB1*0405 (DR4), 1460 nM; against HLA-DR DRB1*0802 (DR8), 28100 nM; in test [2], 1100 nM; in test [3], 301 nM.
In [1], IDVWLGGLKENFLPY had an IC50 of more than 2800 nM.
As to YEANGNLI, the IC50 at HLA-B*4402 was 516 nM; at HLA-B*4001, 7.9 nM; against H-2Kk, 0.65 nM; at HLA-B*4002 it was 7 nM; against HLA-B*1801 it was 191 nM.
For the sequence QEKKRHVDL, the IC50 against HLA-B*4402 (B*4402) came out at 443 nM; against HLA-B*4001 (B*4001) it was 16000 nM; at H-2Kk, 256 nM; against HLA-B*4002 (B*4002), 63100 nM; on HLA-B*1801 (B*1801) it was 7.3 nM; on HLA-B*4501 (B*4501), 12600 nM.
